{
  "source": "patent US9359376B2",
  "about": "“Substituted methylformyl reagents and method of using same to modify physicochemical and/or pharmacokinetic properties of compounds” (priority 2011, dated 2016)",
  "experiment": "in vivo",
  "protocol": "[…] Blood was collected by serial bleeding at 0.16 h, 0.5 h, 1 h, 2 h, 4 h, 6 h, 8 h and 24 h in heparinized tubes. Blood samples were centrifuged at 10,000 rpm for 10 min. at 4° C. to obtain the plasma, which were aspirated into separate labeled tubes and stored at −80° C. 400 ng/ml of Verapmil in acetonitrile was used as the drug extraction solvent for extracting drug from plasma. Extraction solvent was added to plasma was vortexed and shaken on shaker for 10 minutes, centrifuged at 10000 rpm for 10 minutes at 4° C. Supernatant was kept for analysis.\nAcetonitrile and plasma calibration curves were generated and percentage of drug recovery from plasma determined. Quantitative analysis was done by liquid chromatography tandem mass spectrometry using multiple reaction monitoring (API3000 LC-MS/MS). Cmax, Tmax, AUC and t1/2 were calculated using Graph Pad PRISM version 5.04.",
  "data": [
    {"molecule": "CC(=O)O[C@H]1C(=O)[C@@]2(C)[C@H]([C@H](OC(=O)c3ccccc3)[C@@]3(O)CC1=C(C)[C@@H](OC(=O)[C@H](O)[C@@H](NC(=O)c1ccccc1)c1ccccc1)C3)[C@]1(OC(C)=O)CO[C@@H]1C[C@@H]2O", "note": "[Compound 4114, (2α,4α,5β,7β,10β,13α)-4,10-bis(acetyloxy)-13-{[(2R,3S)-3-(benzoylamino)-2-hydroxy-3-phenylpropanoyl]oxy}-1,7-dihydroxy-9-oxo-5,20-epoxytax-11-en-2-yl benzoate]", "values": [
      {"measurement": "AUC", "setting": "female, Sprague Dawley, rat, plasma, po, 10 mg/kg", "result": 0.186, "unit": "µM·h"}
    ]},
    {"molecule": "CCc1c2c(nc3ccc(O)cc13)-c1cc3c(c(=O)n1C2)COC(=O)[C@]3(O)CC", "note": "[Compound 4150, (S)-4,11-diethyl-4,9-dihydroxy-1H-pyrano[3′,4′:6,7]indolizino[1,2-b]quinoline-3,14(4H,12H)-dione]", "values": [
      {"measurement": "PK Value (AUC)", "setting": "rat, in vivo", "result": "BDL"}
    ]},
    {"molecule": "CCc1c2c(nc3ccc(OCOC(=O)c4ccc[n+](COC(=O)NC(C)C)c4)cc13)-c1cc3c(c(=O)n1C2)COC(=O)[C@]3(O)CC.[I-]", "note": "[Compound 306, (S)-3-((((4,11-diethyl-4-hydroxy-3,14-dioxo-3,4,12,14-tetrahydro-1H-pyrano[3′,4′:6,7]indolizino[1,2-b]quinolin-9-yl)oxy)methoxy)carbonyl)-1-(((isopropylcarbamoyl)oxy)methyl)pyridin-1-ium iodide]", "values": [
      {"measurement": "PK Value (AUC)", "setting": "dosage 3.00 mpk, vehicle PEG400", "result": "BDL"}
    ]},
    {"molecule": "CCc1c2c(nc3ccc(OCOC(=O)c4cccnc4)cc13)-c1cc3c(c(=O)n1C2)COC(=O)[C@]3(O)CC", "note": "[Compound 305, (S)-((4,11-diethyl-4-hydroxy-3,14-dioxo-3,4,12,14-tetrahydro-1H-pyrano[3′,4′:6,7]indolizino[1,2-b]quinolin-9-yl)oxy)methyl nicotinate]", "values": [
      {"measurement": "PK Value (AUC)", "setting": "dosage 10.00 mpk, vehicle PEG400", "result": "BDL"}
    ]}
  ]
}
